Experimental data as given in patent US12070501B1, “Topical ophthalmological compositions” (ADS Therapeutics LLC, priority 2021, dated 2024).

Columns and labels:
[1] = Miscibility of semi-fluorinated alkane F6H8 with MCT or light liquid paraffin oil; assay type: physicochemical
Experimental: F6H8, a semi-fluorinated alkane was tested for miscibility with MCT with the ratio of F6H8 to MCT from 1:99 to 99:1. […] F6H8, a semi-fluorinated alkane was tested for miscibility with light liquid paraffin oil with the ratio of F6H8 to light liquid paraffin oil from 1:99 to 99:1.

[2] = water-based formulation at neutral pH; cited from earlier work
[3] = test system: New Zealand White rabbits

Miscibility with MCT ([1]; ratio of F6H8 to MCT from 1:99 to 99:1) | Compound | Miscibility with light liquid paraffin oil ([1]; ratio of F6H8 to light liquid paraffin oil from 1:99 to 99:1) | Shelf life of the product [2] | Magnitude of pupil size changes versus atropine sulfate in aqueous solution ([3]; atropine in F6H8-based formulation, at comparable doses) | Dose response in pupil size dilation ([3]; from 0.01% to 0.05% atropine, Day 7 and Day 22) | Pupil size dilation ([3]; topical ocular instillation twice daily, 40 μL to left eye, Day 7 and Day 22, CBT-009 at 0.01%, […] and 0.05% in […] phenylethyl alcohol, 10% MCT, 89.75% F6H8, comparator 0.03%)
miscible with MCT at all ratios | CCCCCCCCC(F)(F)C(F)(F)C(F)(F)C(F)(F)C(F)(F)C(F)(F)F [F6H8, perfluorohexyloctane] | miscible with light liquid paraffin oil at all ratios | – | – | – | –
– | CN1[C@@H]2CC[C@H]1C[C@@H](OC(=O)C(CO)c1ccccc1)C2 (stereo partly drawn) [Atropine, atropine] | – | less than 1 year | comparable | dose response in pupil size dilation was observed | pupil size dilation was observed
